Assays:
Assay type in all cases: ADME
[1] = Kcat against class A PCI beta-lactamase catalyzed lactone hydrolysis
[2] = Kcat against class A TEM beta-lactamase catalyzed lactone hydrolysis
[3] = Kcat/Km against class C P99 beta-lactamase catalyzed lactone hydrolysis
[4] = Km against class C P99 beta-lactamase catalyzed lactone hydrolysis
[5] = Kcat/Km against class A TEM beta-lactamase catalyzed lactone hydrolysis
[6] = Kcat/Km against class A PCI beta-lactamase catalyzed lactone hydrolysis
[7] = Kcat against class C P99 beta-lactamase catalyzed lactone hydrolysis
[8] = Km against class A TEM beta-lactamase catalyzed lactone hydrolysis
[9] = Km against class A PCI beta-lactamase catalyzed lactone hydrolysis

k cat [1] [s⁻¹] | k cat [2] [s⁻¹] | Ratio [3] [M⁻¹ s⁻¹] | Km [4] [µM] | Ratio [5] [M⁻¹ s⁻¹] | Ratio [6] | k cat [7] [s⁻¹] | Km [8] [µM] | Km [9] [µM] | Compound
0.0047 | 2.07 | 8700 | 620 | 39000 | 1.55 M⁻¹ s⁻¹ | 5.4 | 53 | 0.304 | O=C(Cc1ccccc1)N[C@H]1Cc2cccc(C(=O)O)c2OC1=O
0.024 | > 1.2 | 19000 | 290 | 1200 | 1.6 M⁻¹ s⁻¹ | 5.6 | > 1000 | 15 | O=C(Cc1ccccc1)N[C@@H](Cc1cccc(C(=O)O)c1O)B(O)O
0.001 | 120 | 22000000 | 9 | 600000 | >= 1000 M-1 s-1 | 200 | 200 | ≤ 1 | CC(=O)OCC1=C(C(=O)O)N2C(=O)[C@@H](NC(=O)Cc3cccs3)[C@H]2SC1 [CEPHALOTHIN]
